Measurements published in US20140120083A1, “TREATMENT OF CANCERS USING PI3 KINASE ISOFORM MODULATORS” (INFINITY PHARMACEUTICALS, INC., priority 2012, published 2014).

Test: Phase 1 study in advanced hematologic malignancies, pharmacokinetics
Format: in vivo, human
Conditions: patients
Description: PK and PD markers were evaluated after the first dose (e.g., 8 mg BID) and at steady state. PD activity (PI3K inhibition) in whole blood was evaluated using a basophil activation assay which measured reduction in CD63 expression on the surface of basophils following ex vivo stimulation.

## C[C@H](Nc1ncnc2[nH]cnc12)c1cc2cccc(Cl)c2c(=O)n1-c1ccccc1 [Compound 292]
human, in vivo, oral, read-out: eliminating t1/2
  half-life: 360 to 600 min
  doses with mean steady-state trough above levels sufficient for PI3K-δ inhibition: > 15 mg BID
8-50 mg BID
  plasma Cmax and AUC over the dose range: dose-proportional increases
Through 50 mg BID
  PK profile: linear
